Results taken from ChEMBL document CHEMBL3046198, “Insecticidal and antifungal activities of aminorhodanine derivatives” (1998).
≈ marks a conversion by molar mass, not a printed value.

Assays:
Type in all cases: functional
Culex pipiens pallens [1] = assay: Insecticidal activity against Culex pipiens pallens (mosquito) assessed as mortality at 5 ug/insect after 24 hr
Culex pipiens pallens [2] = assay: Insecticidal activity against Culex pipiens pallens (mosquito) assessed as mortality at 0.25 ug/insect after 24 hr
Musca domestica [3] = assay: Insecticidal activity against Musca domestica (house fly) assessed as mortality at 0.10 ug/insect after 24 hr
Culex pipiens pallens [4] = assay: Insecticidal activity against Culex pipiens pallens (mosquito) assessed as mortality at 4 ug/insect after 24 hr
Musca domestica [5] = assay: Insecticidal activity against Musca domestica (house fly) assessed as mortality at 0.05 ug/insect after 24 hr
Culex pipiens pallens [6] = assay: Insecticidal activity against Culex pipiens pallens (mosquito) assessed as mortality at 2 ug/insect after 24 hr
Penicillium expansum = assay: Antifungal activity against Penicillium expansum IFO 8800 after 7 days by agar dilution method; conditions: IFO 8800, 168 h
Musca domestica [7] = assay: Insecticidal activity against Musca domestica (house fly) assessed as mortality at 0.5 ug/insect after 24 hr
Fusarium oxysporum = assay: Antifungal activity against Fusarium oxysporum OPS 118 after 7 days by agar dilution method; conditions: OPS 118, 168 h
Culex pipiens pallens [8] = assay: Insecticidal activity against Culex pipiens pallens (mosquito) assessed as mortality at 0.05 ug/insect after 24 hr
Musca domestica [9] = assay: Insecticidal activity against Musca domestica (house fly) assessed as mortality at 1 ug/insect after 24 hr
Musca domestica [10] = assay: Insecticidal activity against Musca domestica (house fly) assessed as mortality at 5 ug/insect after 24 hr
Culex pipiens pallens [11] = assay: Insecticidal activity against Culex pipiens pallens (mosquito) assessed as mortality at 0.025 ug/insect after 24 hr
Musca domestica [12] = assay: Insecticidal activity against Musca domestica (house fly) assessed as mortality at 2 ug/insect after 24 hr
Musca domestica [13] = assay: Insecticidal activity against Musca domestica (house fly) assessed as mortality at 4 ug/insect after 24 hr
Candida albicans = assay: Antifungal activity against Candida albicans ATCC 10231 after 7 days by agar dilution method; conditions: ATCC 10231, 168 h
Culex pipiens pallens [14] = assay: Insecticidal activity against Culex pipiens pallens (mosquito) assessed as mortality at 0.5 ug/insect after 24 hr
[15] = system: Trichophyton mentagrophytes; assay: Antifungal activity against Trichophyton mentagrophytes IFO 32412 after 7 days by agar dilution method; conditions: IFO 32412, 168 h
Culex pipiens pallens [16] = assay: Insecticidal activity against Culex pipiens pallens (mosquito) assessed as mortality at 1 ug/insect after 24 hr
Wickerhamomyces anomalus = assay: Antifungal activity against Wickerhamomyces anomalus OPS 308 after 7 days by agar dilution method; conditions: Hansenula anomala, OPS 308, 168 h
Culex pipiens pallens [17] = assay: Insecticidal activity against Culex pipiens pallens (mosquito) assessed as mortality at 0.10 ug/insect after 24 hr
Aspergillus niger = assay: Antifungal activity against Aspergillus niger ATCC 16404 after 7 days by agar dilution method; conditions: ATCC 16404, 168 h
Musca domestica [18] = assay: Insecticidal activity against Musca domestica (house fly) assessed as mortality at 0.25 ug/insect after 24 hr
Culex pipiens pallens [19] = assay: Insecticidal activity against Culex pipiens pallens (mosquito) assessed as mortality at 0.004 ug/insect after 24 hr
Musca domestica [20] = assay: Insecticidal activity against Musca domestica (house fly) assessed as mortality at 0.250 ug/insect after 24 hr
Culex pipiens pallens [21] = assay: Insecticidal activity against Culex pipiens pallens (mosquito) assessed as mortality at 0.008 ug/insect after 24 hr
Culex pipiens pallens [22] = assay: Insecticidal activity against Culex pipiens pallens (mosquito) assessed as mortality at 0.001 ug/insect after 24 hr
Musca domestica [23] = assay: Insecticidal activity against Musca domestica (house fly) assessed as mortality at 0.125 ug/insect after 24 hr
Musca domestica [24] = assay: Insecticidal activity against Musca domestica (house fly) assessed as mortality at 0.031 ug/insect after 24 hr
Culex pipiens pallens [25] = assay: Insecticidal activity against Culex pipiens pallens (mosquito) assessed as mortality at 0.002 ug/insect after 24 hr
Culex pipiens pallens [26] = assay: Insecticidal activity against Culex pipiens pallens (mosquito) assessed as mortality at 0.00025 ug/insect after 24 hr
Musca domestica [27] = assay: Insecticidal activity against Musca domestica (house fly) assessed as mortality at 0.062 ug/insect after 24 hr
Culex pipiens pallens [28] = assay: Insecticidal activity against Culex pipiens pallens (mosquito) assessed as mortality at 0.0005 ug/insect after 24 hr
Musca domestica [29] = assay: Insecticidal activity against Musca domestica (house fly) assessed as mortality at 0.015 ug/insect after 24 hr

Compound | Activity (Culex pipiens pallens [1]) | MIC (Penicillium expansum) | MIC (Fusarium oxysporum) | Activity (Musca domestica [10]) | MIC (Candida albicans) | MIC [15] | MIC (Wickerhamomyces anomalus) | MIC (Aspergillus niger) | also measured
NN1C(=O)CSC1=S [AMINORHODANINE] | 100% | 100 µg/mL (≈ 0.675 mM) | 400 µg/mL (≈ 2.7 mM) | 100% | 12.5 µg/mL (≈ 0.0843 mM) | 12.5 µg/mL (≈ 0.0843 mM) | 25 µg/mL (≈ 0.169 mM) | 6.25 µg/mL (≈ 0.0422 mM) | Activity (Culex pipiens pallens [2]): 53.3%; Activity (Musca domestica [3]): 10%; Activity (Culex pipiens pallens [4]): 100%; Activity (Musca domestica [5]): 0%; Activity (Culex pipiens pallens [6]): 100%; Activity (Musca domestica [7]): 36.7%; Activity (Culex pipiens pallens [8]): 16.7%; Activity (Musca domestica [9]): 60%; Activity (Culex pipiens pallens [11]): 3.3%; Activity (Musca domestica [12]): 63.3%; Activity (Musca domestica [13]): 86.7%; Activity (Culex pipiens pallens [14]): 60%; Activity (Culex pipiens pallens [16]): 86.7%; Activity (Culex pipiens pallens [17]): 33.3%; Activity (Musca domestica [18]): 17.9%
COP(=S)(OC)Oc1ccc([N+](=O)[O-])c(C)c1 [FENITROTHION] |  |  |  |  |  |  |  |  | Activity (Culex pipiens pallens [19]): 86.7%; Activity (Musca domestica [20]): 100%; Activity (Culex pipiens pallens [21]): 100%; Activity (Culex pipiens pallens [22]): 16.7%; Activity (Musca domestica [23]): 93.3%; Activity (Musca domestica [24]): 3.3%; Activity (Culex pipiens pallens [25]): 50%; Activity (Culex pipiens pallens [26]): 0%; Activity (Musca domestica [27]): 46.7%; Activity (Culex pipiens pallens [28]): 3.3%; Activity (Musca domestica [29]): 0%
O=C1CSC(=S)N1 [RHODANINE] | 0% | > 1000 µg/mL | 800 µg/mL (≈ 6.01 mM) | 0% | 800 µg/mL (≈ 6.01 mM) | 200 µg/mL (≈ 1.5 mM) | 400 µg/mL (≈ 3 mM) | 800 µg/mL (≈ 6.01 mM) | 
O=C(NN1C(=O)CSC1=S)c1ccccc1 [N-BENZOYLAMINORHODANINE] | 0% | > 1000 µg/mL | > 1000 µg/mL | 0% | > 1000 µg/mL | > 1000 µg/mL | > 1000 µg/mL | > 1000 µg/mL | 
CC(=O)NN1C(=O)CSC1=S [N-ACETYLAMINORHODANINE] | 0% | > 1000 µg/mL | > 1000 µg/mL | 0% | > 1000 µg/mL | > 1000 µg/mL | > 1000 µg/mL | > 1000 µg/mL | 
